One compound from PMC9067978, “Design, synthesis, and molecular docking studies of novel pomalidomide-based PROTACs as potential anti-cancer agents targeting EGFR^WT and EGFR^T790M” (Journal of Enzyme Inhibition and Medicinal Chemistry, 2022) can be followed below.

Broadly, the IC50 is the concentration at which inhibition is half-maximal.

In test [1] the test system is MCF-7. As to the kind of experiment: Annexin V/propidium iodide apoptosis assay, MCF-7. It counts as cell-based, human. The conditions noted are these: 3.92 µM, 24 hours. The protocol:
The double staining Annexin V/propidium iodide technique was performed to assess the mechanism of cell death and apoptosis-inducing activity.[46] […] As shown in (Figure 7 (A and B).
The negative control was chosen to be DMSO. The cells were then collected and washed twice in PBS. The cells were separated using centrifugation. An apoptosis detection kit (BD Biosciences, SanJose, CA) was used in this investigation. Following the manufacturer’s instructions, the cells were dyed with Annexin V-FITC and propidium iodide (PI) in the binding buffer for 20 minutes at 37 °C in the darkness. A flow cytometer was used to assess the binding of Annexin V-FITC and PI. The frequencies in all quadrants were investigated using the Flowjo program.[53]

In test [2] the target is T1, EGFR^WT (Homo sapiens, UniProt P00533).
T1 construct: purchased Sigma
T1 sequence (P00533 25-1210): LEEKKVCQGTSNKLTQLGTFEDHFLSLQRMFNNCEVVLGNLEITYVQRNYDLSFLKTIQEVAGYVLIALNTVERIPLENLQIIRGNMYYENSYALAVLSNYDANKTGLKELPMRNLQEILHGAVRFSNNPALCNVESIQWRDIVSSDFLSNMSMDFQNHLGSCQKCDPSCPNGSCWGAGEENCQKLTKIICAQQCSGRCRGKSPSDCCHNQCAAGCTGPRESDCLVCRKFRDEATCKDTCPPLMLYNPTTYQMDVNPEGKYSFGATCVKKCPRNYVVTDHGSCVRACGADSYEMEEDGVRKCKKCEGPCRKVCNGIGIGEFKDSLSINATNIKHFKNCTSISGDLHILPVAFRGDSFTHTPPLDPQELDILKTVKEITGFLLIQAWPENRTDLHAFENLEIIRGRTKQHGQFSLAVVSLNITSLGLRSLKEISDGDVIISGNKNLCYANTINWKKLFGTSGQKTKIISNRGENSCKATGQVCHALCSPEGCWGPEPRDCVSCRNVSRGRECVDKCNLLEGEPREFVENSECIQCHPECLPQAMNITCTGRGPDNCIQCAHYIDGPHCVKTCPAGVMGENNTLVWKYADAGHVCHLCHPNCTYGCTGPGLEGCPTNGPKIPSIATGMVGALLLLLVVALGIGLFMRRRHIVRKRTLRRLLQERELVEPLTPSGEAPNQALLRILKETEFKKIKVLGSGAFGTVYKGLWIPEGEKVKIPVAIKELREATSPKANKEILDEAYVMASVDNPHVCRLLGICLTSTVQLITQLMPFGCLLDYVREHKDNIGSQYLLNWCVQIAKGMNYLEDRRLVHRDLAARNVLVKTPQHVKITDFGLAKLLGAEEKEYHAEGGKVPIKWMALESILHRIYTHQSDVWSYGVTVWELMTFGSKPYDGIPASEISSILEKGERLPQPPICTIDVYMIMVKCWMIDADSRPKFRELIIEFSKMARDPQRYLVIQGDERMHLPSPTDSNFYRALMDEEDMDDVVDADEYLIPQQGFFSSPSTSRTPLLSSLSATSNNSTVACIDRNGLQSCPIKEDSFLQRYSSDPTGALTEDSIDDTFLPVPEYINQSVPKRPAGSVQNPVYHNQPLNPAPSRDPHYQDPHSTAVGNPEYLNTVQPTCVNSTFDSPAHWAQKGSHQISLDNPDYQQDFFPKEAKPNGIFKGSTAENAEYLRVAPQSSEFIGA
As to the kind of experiment: EGFR^WT kinase inhibitory assay (HTRF). It counts as biochemical. The conditions noted are these: ATP 1.65 µM, mean ± S.D of three experiments. How it is done:
This test used HTRF[44] assay with EGFR^WT and EGFR^T790M (Sigma). For the first 5 minutes, the evaluated compounds were incubated with EGFR^WT and/or EGFR^T790M and their substrates in the enzymatic buffer. […] The assay was performed at 37 °C for 30 minutes. The addition of EDTA-containing detection reagents halted the process. After one hour detection period, GraphPad Prism 5.0 was used to calculate the IC50 values. For each concentration, three separate trials were carried out.
A general note: TR-FRET usually uses a lanthanide donor and a delayed reading to cut background.

Take `Cn1c(=O)c(C(=O)NNCCOCCOCC(=O)Nc2cccc3c2C(=O)N(C2CCC(=O)NC2=O)C3=O)nc2ccccc21` (stereo not shown) [Compound 16, N-(2-(2,6-dioxopiperidin-3-yl)-1,3-dioxoisoindolin-4-yl)-2-(2-(2-(2-(4-methyl-3-oxo-3,4-dihydroquinoxaline-2-carbonyl) hydrazinyl)ethoxy)ethoxy) acetamide]: in test [1], the “cellular apoptosis, early and late, times vs control, MCF-7” value is given as roughly 9 times; the “early apoptosis ratio, MCF-7” value is listed as 4.18%; the “late apoptosis ratio, MCF-7” value was determined as 5.07%. In test [2], this compound gave an IC50 of 0.1 ± 0.03 µM.
